In patent US6737383B1, “Herbicidal oxadiazolidines” (priority 1999, dated 2004):

How the values were obtained:
pigweed = test: Test B pre/postemergence pigweed; format: in vivo, Amaranthus retroflexus
Outline: (§1)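 Herbicidal effect was estimated by eye on a ten-point control scale after plants spent twelve to sixteen days in a greenhouse following soil or foliar treatment. Foliar sprays targeted plants at one to four leaves; all doses were formulated in a non-phytotoxic solvent with surfactant.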

sugar beet = test: Test B pre/postemergence sugar beet; format: in vivo, Beta vulgaris
Outline: as §1

cocklebur = test: Test B pre/postemergence cocklebur; format: in vivo, Xanthium strumarium
Outline: as §1

bamyardgrass = test: Test B flood test barnyardgrass; format: in vivo, Echinochloa crus-galli
Outline: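 Read-out is a visual response score from 0 (no effect) to 10 (complete control), assigned by comparison with untreated controls. Treatment was applied at the 2-leaf stage, and plants stayed in the greenhouse for twelve to sixteen days before scoring.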

[1] = Preemergence, Rate 62 g/ha, scale of 0 to 10 where 0 is no effect and 10 is complete control
[2] = Preemergence, Rate 125 g/ha, 0 is no effect, 10 is complete control
[3] = Preemergence, Rate 250 g/ha, scale 0 to 10, 0 is no effect, 10 is complete control
[4] = Preemergence, Rate 500 g/ha, scale of 0 to 10 where 0 is no effect and 10 is complete control
[5] = Rate 62 g/ha, Postemergence, scale of 0 to 10 where 0 is no effect and 10 is complete control
[6] = Rate 125 g/ha, Postemergence, scale 0 to 10
[7] = Rate 500 g/ha, Postemergence, scale 0 to 10
[8] = Rate 62 g/ha, headed Pre-emergence (flood test species), scale 0 to 10 (0 no effect, 10 complete control)
[9] = Rate 125 g/ha, Pre-emergence, flood test species, scale 0 to 10 where 0 is no effect and 10 is complete control
[10] = Rate 250 g/ha, Pre-emergence, flood-test species, scale 0 to 10, 0 is no effect, 10 is complete control
[11] = Preemergence, Rate 250 g/ha, scale of 0 to 10 where 0 is no effect and 10 is complete control
[12] = Rate 125 g/ha, Preemergence, scale of 0 to 10 where 0 is no effect and 10 is complete control
[13] = Rate 500 g/ha, Postemergence, scale 0 to 10, 0 no effect, 10 complete control
[14] = Rate 500 g/ha, Pre-emergence, flood test species, scale 0 to 10 (0 no effect, 10 complete control)
[15] = Postemergence, Rate 1000 g/ha, scale 0 to 10 (0 no effect, 10 complete control)
[16] = Rate 1000 g/ha, Preemergence, scale 0 to 10 (0 no effect, 10 complete control)
[17] = Rate 125 g/ha, Postemergence, scale of 0 to 10 where 0 is no effect and 10 is complete control
[18] = Rate 250 g/ha, Postemergence, scale of 0 to 10 where 0 is no effect and 10 is complete control
[19] = Postemergence, Rate 31 g/ha, visual rating, scale 0 to 10 (0 no effect, 10 complete control)
[20] = Preemergence, Rate 31 g/ha, visual rating, scale 0 to 10 (0 no effect, 10 complete control)
[21] = Rate 62 g/ha, Postemergence, scale 0 to 10 (0 no effect, 10 complete control)

Row | SMILES | Redroot pigweed plant response rating (pigweed; [1]) | Plant response rating, Redroot pigweed (pigweed; [4]) | Plant response rating (0 to 10; 0 is no effect, 10 is complete control), Redroot pigweed (pigweed; Rate 250 g/ha, Postemergence) | Sugarbeets plant response rating (sugar beet; [1]) | Plant response rating, Sugarbeets (sugar beet; [4]) | Cocklebur plant response rating (cocklebur; [1]) | Plant response rating, Cocklebur (cocklebur; [4]) | Cocklebur plant response rating (cocklebur; [5]) | Cocklebur plant response rating (cocklebur; [6]) | Barnyardgrass plant response rating (bamyardgrass; [8]) | Barnyardgrass plant response rating (bamyardgrass; [9]) | Barnyardgrass plant response rating (bamyardgrass; [10]) | Redroot pigweed plant response rating (pigweed; [11]) | Redroot pigweed plant response rating (pigweed; [12]) | Sugarbeets plant response rating (sugar beet; [11]) | Sugarbeets plant response rating (sugar beet; [12]) | Cocklebur plant response rating (cocklebur; [11]) | Cocklebur plant response rating (cocklebur; [12]) | Cocklebur plant response rating (cocklebur; [13]) | Barnyardgrass plant response rating (bamyardgrass; [14]) | also measured
1 | Cc1nc(C)c(-n2c(=O)on(C(=O)N(c3ccc(F)cc3)C(C)C)c2=O)s1 [Compound 198] | 0 | 0 | 0 | 0 | 0 | 0 | 0 | 0 | 0 | 0 | 0 | 0 | – | – | – | – | – | – | – | – | Redroot pigweed plant response rating (0 to 10 scale) (pigweed; [2]): 0; Redroot pigweed plant response rating (pigweed; [3]): 0; Redroot pigweed plant response rating (pigweed; [5]): 0; Redroot pigweed plant response rating (pigweed; [6]): 0; Redroot pigweed plant response rating (pigweed; [7]): 0; Sugarbeets plant response rating (0 to 10 scale) (sugar beet; [2]): 0; Sugarbeets plant response rating (sugar beet; [3]): 0; Sugarbeets plant response rating (sugar beet; [5]): 0; Sugarbeets plant response rating (sugar beet; [6]): 0; Plant response rating (0 to 10; 0 is no effect, 10 is complete control), Sugarbeets (sugar beet; Rate 250 g/ha, Postemergence): 0; Sugarbeets plant response rating (sugar beet; [7]): 0; Cocklebur plant response rating (0 to 10 scale) (cocklebur; [2]): 0; Cocklebur plant response rating (cocklebur; [3]): 0; Plant response rating (0 to 10; 0 is no effect, 10 is complete control), Cocklebur (cocklebur; Rate 250 g/ha, Postemergence): 0; Cocklebur plant response rating (cocklebur; [7]): 0; Plant response rating, Barnyardgrass (bamyardgrass; Rate 500 g/ha, headed Pre-emergence (flood test species), scale 0 to 10 (0 no effect, 10 complete control)): 0
2 | COc1cc(C)cc(C)c1-n1c(=O)on(C(=O)N(c2ccc(F)cc2)C(C)C)c1=O [Compound 222] | 0 | 4 | 0 | 0 | 0 | 0 | – | 0 | 0 | 0 | 0 | 0 | 0 | 0 | 0 | 0 | 0 | 0 | 0 | 0 | Redroot pigweed plant response rating (pigweed; [5]): 0; Redroot pigweed plant response rating (pigweed; [6]): 0; Redroot pigweed plant response rating (pigweed; [13]): 0; Sugarbeets plant response rating (sugar beet; [5]): 0; Sugarbeets plant response rating (sugar beet; [6]): 0; Plant response rating (0 to 10; 0 is no effect, 10 is complete control), Sugarbeets (sugar beet; Rate 250 g/ha, Postemergence): 0; Sugarbeets plant response rating (sugar beet; [13]): 0; Plant response rating (0 to 10; 0 is no effect, 10 is complete control), Cocklebur (cocklebur; Rate 250 g/ha, Postemergence): 0
3 | Cc1ccccc1-n1c(=O)on(C(=O)N(c2ccc(C(C)C)cc2)C(C)C)c1=O [Compound 231] | 0 | 0 | 0 | 0 | 0 | 0 | 0 | 0 | 0 | 0 | 0 | 0 | 0 | 0 | 0 | 0 | 0 | 0 | 0 | 0 | Redroot pigweed plant response rating (pigweed; [5]): 0; Redroot pigweed plant response rating (pigweed; [6]): 0; Redroot pigweed plant response rating (pigweed; [13]): 0; Sugarbeets plant response rating (sugar beet; [5]): 0; Sugarbeets plant response rating (sugar beet; [6]): 0; Plant response rating (0 to 10; 0 is no effect, 10 is complete control), Sugarbeets (sugar beet; Rate 250 g/ha, Postemergence): 0; Sugarbeets plant response rating (sugar beet; [13]): 0; Plant response rating (0 to 10; 0 is no effect, 10 is complete control), Cocklebur (cocklebur; Rate 250 g/ha, Postemergence): 0
4 | CCOC(=O)C(C)N(C(=O)n1oc(=O)n(-c2ccccc2C)c1=O)c1ccc(F)cc1 (stereo not drawn) [Compound 247] | – | 0 | 0 | – | 0 | – | 0 | – | 0 | – | 0 | 0 | 0 | 0 | 0 | 0 | 0 | 0 | 0 | 0 | Redroot pigweed plant response rating (pigweed; [15]): 0; Redroot pigweed plant response rating (pigweed; [13]): 0; Plant response rating, Redroot pigweed (pigweed; [16]): 0; Sugarbeets plant response rating (sugar beet; [15]): 0; Sugarbeets plant response rating (sugar beet; [13]): 0; Plant response rating, Sugarbeets (sugar beet; [16]): 0; Cocklebur plant response rating (cocklebur; [15]): 0; Plant response rating (0 to 10; 0 is no effect, 10 is complete control), Cocklebur (cocklebur; Rate 250 g/ha, Postemergence): 0; Plant response rating, Cocklebur (cocklebur; [16]): 0; Barnyardgrass plant response rating (bamyardgrass; Pre-emergence, Rate 1000 g/ha, scale 0 to 10 (0 no effect, 10 complete control)): 0
5 | Cc1ccccc1-n1c(=O)on(C(=O)N(c2ccc(Oc3ccccc3)cc2)C(C)C)c1=O [Compound 268] | 0 | 0 | – | 0 | 0 | 0 | 0 | 0 | – | 0 | 0 | 0 | 0 | 0 | 0 | 0 | 0 | 0 | 0 | 0 | Redroot pigweed plant response rating (pigweed; [17]): 0; Plant response rating, Redroot pigweed (pigweed; [18]): 0; Sugarbeets plant response rating (sugar beet; [17]): 0; Plant response rating, Sugarbeets (sugar beet; [18]): 0; Cocklebur plant response rating (cocklebur; [17]): 0; Plant response rating, Cocklebur (cocklebur; [18]): 0
6 | CC(C)N(C(=O)n1oc(=O)n(CCCCF)c1=O)c1ccc(F)cc1 [Compound 289] | 5 | – | – | 2 | – | 0 | – | – | – | 0 | 0 | 3 | 8 | 6 | 8 | 6 | 0 | 0 | – | – | Redroot pigweed plant response rating (pigweed; [19]): 0; Redroot pigweed plant response rating (pigweed; [20]): 5; Redroot pigweed plant response rating (pigweed; [21]): 0; Redroot pigweed plant response rating (pigweed; [17]): 5; Plant response rating, Redroot pigweed (pigweed; [18]): 7; Sugarbeets plant response rating (sugar beet; [19]): 0; Sugarbeets plant response rating (sugar beet; [20]): 0; Sugarbeets plant response rating (sugar beet; [21]): 0; Sugarbeets plant response rating (sugar beet; [17]): 0; Plant response rating, Sugarbeets (sugar beet; [18]): 0; Cocklebur plant response rating (cocklebur; [19]): 0; Cocklebur plant response rating (cocklebur; [20]): 0; Cocklebur plant response rating (cocklebur; [21]): 0; Cocklebur plant response rating (cocklebur; [17]): 1; Plant response rating, Cocklebur (cocklebur; [18]): 2; Barnyardgrass plant response rating (bamyardgrass; Rate 31 g/ha, Pre-emergence section (flood test species), scale 0 to 10): 0
7 | CCN(C(=O)n1oc(=O)n(C2CC2)c1=O)C1CCCCC1 [Compound 298] | 0 | 0 | – | 0 | 0 | 0 | 0 | – | – | 0 | 0 | 0 | 0 | – | 0 | – | 0 | – | 0 | 0 | Redroot pigweed plant response rating (0 to 10 scale) (pigweed; Preemergence, Rate 125 g/ha): 0; Redroot pigweed plant response rating (pigweed; [21]): 0; Redroot pigweed plant response rating (pigweed; [17]): 0; Plant response rating, Redroot pigweed (pigweed; [18]): 0; Sugarbeets plant response rating (0 to 10 scale) (sugar beet; Preemergence, Rate 125 g/ha): 0; Sugarbeets plant response rating (sugar beet; [21]): 0; Sugarbeets plant response rating (sugar beet; [17]): 0; Plant response rating, Sugarbeets (sugar beet; [18]): 0; Cocklebur plant response rating (0 to 10 scale) (cocklebur; Preemergence, Rate 125 g/ha): 0; Cocklebur plant response rating (cocklebur; [21]): 0; Cocklebur plant response rating (cocklebur; [17]): 0; Plant response rating, Cocklebur (cocklebur; [18]): 0
